Source: ChEMBL document CHEMBL1201862, “PubChem BioAssay data set” (2004)
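Results reflect a 48-hour exposure of cells in 96-well plates to compound at five concentrations. GI50 is the concentration that inhibits growth by half.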 Calls of active or inactive are those of the source. No stated cut-off is given here; in the data, active = GI50 up to about 1.1 µM and inactive = higher.

How the values were obtained:
Test in all cases: NCI anticancer screen, dose series, 48 h
A498 = tested on: A498
A549 = tested on: A549
ACHN = tested on: ACHN
CAKI-1 = tested on: CAKI-1
CCRF-CEM = tested on: CCRF-CEM
HCC 2998 = tested on: HCC 2998
OVCAR-3 = tested on: OVCAR-3
OVCAR-5 = tested on: OVCAR-5
RXF 393 = tested on: RXF 393
SF-539 = tested on: SF-539
SK-MEL-5 = tested on: SK-MEL-5
SK-OV-3 = tested on: SK-OV-3
SW-620 = tested on: SW-620
HCT-116 = tested on: HCT-116
SR = tested on: SR

Measured: GI50

Cc1nc(-n2nc(-c3ccccc3)cc2-c2ccccc2)sc1C(=O)/C=C/c1cccc([N+](=O)[O-])c1
inactive: A498 20.2 µM | A549 17.5 µM | ACHN 23.3 µM | CAKI-1 16.7 µM | CCRF-CEM 8.32 µM | HCC 2998 15.5 µM | OVCAR-3 3.03 µM | OVCAR-5 23.7 µM | RXF 393 14.1 µM | SF-539 10.9 µM | SK-MEL-5 12.7 µM | SK-OV-3 46.3 µM | SW-620 > 10 µM

Cc1ccc(C)c2c1C1CCCCC3(OCCCO3)C21O (stereo not drawn)
inactive: A498 > 100 µM | A549 > 100 µM | ACHN > 100 µM | CAKI-1 > 100 µM | CCRF-CEM > 100 µM | HCC 2998 > 100 µM | HCT-116 > 100 µM | OVCAR-3 51.4 µM | OVCAR-5 > 100 µM | RXF 393 > 100 µM | SF-539 > 100 µM | SK-MEL-5 > 100 µM | SK-OV-3 > 100 µM | SW-620 > 100 µM

CN(C)C(=O)Oc1c(-c2ccccc2)c(=O)n2c3ccccc3n3c(=O)n(C)c(=O)c1c23
inactive: A498 > 100 µM | A549 > 100 µM | ACHN > 100 µM | CAKI-1 > 100 µM | HCC 2998 > 100 µM | HCT-116 > 100 µM | OVCAR-3 > 100 µM | OVCAR-5 > 100 µM | RXF 393 > 100 µM | SF-539 > 100 µM | SK-MEL-5 > 100 µM | SK-OV-3 > 100 µM | SR > 100 µM | SW-620 > 100 µM

C/C(=N\NC(=O)CC(=O)Nc1ccc(C)cc1)c1cc2ccccc2oc1=O
inactive: A549 > 100 µM | ACHN > 100 µM | CCRF-CEM > 100 µM | HCT-116 > 100 µM | OVCAR-3 > 100 µM | RXF 393 89.1 µM | SF-539 > 100 µM | SK-MEL-5 > 100 µM | SK-OV-3 > 100 µM | SW-620 > 100 µM

CN(C(=O)c1cccs1)C(=S)N1CCN(c2ccccn2)CC1
inactive: A549 > 100 µM | ACHN > 100 µM | CAKI-1 > 100 µM | CCRF-CEM > 100 µM | HCT-116 > 100 µM | OVCAR-3 > 100 µM | OVCAR-5 > 100 µM | RXF 393 > 100 µM | SF-539 > 100 µM | SK-MEL-5 > 100 µM | SK-OV-3 > 100 µM | SW-620 > 100 µM

CN(CCS(=O)(=O)N1C(=O)C2CCCN2C(=O)[C@@H]1Cc1ccccc1)C(=O)OCc1ccccc1 (stereo partly drawn)
inactive: A498 35.5 µM | A549 48 µM | ACHN 28.3 µM | CAKI-1 44.4 µM | CCRF-CEM 33 µM | HCC 2998 40.2 µM | HCT-116 39.9 µM | OVCAR-3 32.6 µM | OVCAR-5 > 100 µM | RXF 393 28.6 µM | SF-539 > 100 µM | SK-MEL-5 25.8 µM | SK-OV-3 > 100 µM | SR 40 µM | SW-620 > 100 µM

CN(C)CCN(C)CCC(=O)/C=C/c1ccccc1
inactive: A498 > 89.9 µM | A549 > 71.6 µM | ACHN 29.5 µM | CAKI-1 22.7 µM | CCRF-CEM 3.48 µM | HCC 2998 > 45.5 µM | HCT-116 17.1 µM | OVCAR-3 27.7 µM | OVCAR-5 > 60.1 µM | RXF 393 21.3 µM | SF-539 19.1 µM | SK-MEL-5 > 44.5 µM | SK-OV-3 > 100 µM | SR 7 µM | SW-620 18.5 µM

O=c1sc(-c2nc3ccccc3[nH]2)c(/N=C/c2ccccc2)n1-c1ccccc1
inactive: A498 > 100 µM | A549 57.4 µM | ACHN 65.2 µM | CAKI-1 > 100 µM | CCRF-CEM > 100 µM | HCC 2998 > 100 µM | OVCAR-3 25.6 µM | OVCAR-5 > 100 µM | RXF 393 62.4 µM | SF-539 26.3 µM | SK-MEL-5 29.9 µM | SK-OV-3 42.6 µM | SW-620 > 100 µM

N#CCCN(C1=NN(C(=O)CC(=O)Nc2ccc(Cl)cc2)C(c2ccccc2)C1)c1ccc(Cl)cc1 (stereo not drawn)
inactive: A498 > 100 µM | A549 > 100 µM | ACHN > 100 µM | CAKI-1 > 100 µM | CCRF-CEM > 100 µM | HCC 2998 > 100 µM | HCT-116 > 100 µM | OVCAR-3 > 100 µM | OVCAR-5 > 100 µM | RXF 393 > 100 µM | SF-539 > 100 µM | SK-MEL-5 > 100 µM | SR > 100 µM | SW-620 > 100 µM

O=C1Cc2nc(CO)c(CO)c(CO)c2CO1
inactive: A498 > 100 µM | A549 > 100 µM | ACHN > 100 µM | CAKI-1 > 100 µM | CCRF-CEM > 100 µM | HCC 2998 > 100 µM | HCT-116 > 100 µM | OVCAR-3 > 100 µM | OVCAR-5 > 100 µM | SF-539 > 100 µM | SK-MEL-5 > 100 µM | SK-OV-3 > 100 µM | SW-620 > 100 µM

CC(=O)c1ccc(N2C(=O)C3c4[nH]c5ccccc5c4C4CCC(C(C)(C)C)CC4C3C2=O)cc1 (stereo not drawn)
inactive: A498 22.5 µM | A549 19.6 µM | ACHN 28.3 µM | CCRF-CEM 36.3 µM | HCC 2998 20.7 µM | HCT-116 16.6 µM | RXF 393 17.9 µM | SF-539 20.3 µM | SK-MEL-5 25.6 µM | SK-OV-3 48.6 µM | SR 26.7 µM | SW-620 21.7 µM

C=CCC(N(C)C(=O)[C@H](Cc1ccccc1)NC(=O)OCc1ccccc1)P(=O)(Oc1ccccc1)Oc1ccccc1 (stereo partly drawn)
inactive: A549 5.81 µM | ACHN 6.5 µM | CCRF-CEM 8.51 µM | HCC 2998 > 100 µM | HCT-116 5.9 µM | OVCAR-3 > 100 µM | RXF 393 > 100 µM | SF-539 > 100 µM | SK-OV-3 > 100 µM | SR 6.37 µM | SW-620 > 100 µM

O=C1CCCCCCCCCCC(=O)N2CCOCCOCCN1Cc1cccc(n1)C2
inactive: A498 > 100 µM | A549 > 100 µM | ACHN > 100 µM | CAKI-1 > 100 µM | CCRF-CEM > 100 µM | HCC 2998 > 100 µM | HCT-116 > 100 µM | OVCAR-3 44.5 µM | OVCAR-5 > 100 µM | RXF 393 28.4 µM | SF-539 83.2 µM | SK-MEL-5 61.5 µM | SK-OV-3 > 100 µM | SW-620 > 100 µM

Cc1c(C(=O)CC(=O)C(=O)Nc2cccc(C(F)(F)F)c2)[n+]([O-])c2ccccc2[n+]1[O-]
inactive: A498 20.7 µM | A549 14.4 µM | ACHN 3.15 µM | CAKI-1 6.47 µM | CCRF-CEM 2.51 µM | HCC 2998 4.72 µM | HCT-116 3.06 µM | OVCAR-3 1.66 µM | OVCAR-5 7.28 µM | RXF 393 11.5 µM | SF-539 3.13 µM | SK-MEL-5 3.57 µM | SK-OV-3 18.2 µM | SR 2.33 µM | SW-620 3.54 µM

O=C(/C=C/c1ccco1)N1CCN(Cc2ccccc2)CC1
inactive: A498 > 100 µM | A549 > 100 µM | ACHN > 100 µM | CAKI-1 > 100 µM | CCRF-CEM > 100 µM | HCC 2998 > 100 µM | HCT-116 > 100 µM | OVCAR-3 > 100 µM | OVCAR-5 > 100 µM | SF-539 > 100 µM | SK-MEL-5 > 100 µM | SK-OV-3 > 100 µM | SR > 100 µM | SW-620 > 100 µM

O=C(COc1ccc(Br)cc1Br)N1N=C(c2ccc([N+](=O)[O-])o2)CC1(O)c1ccccc1 (stereo not drawn)
inactive: A498 10.2 µM | A549 8.65 µM | ACHN 15.3 µM | CAKI-1 14.5 µM | CCRF-CEM 3.13 µM | HCC 2998 10.6 µM | HCT-116 11.9 µM | OVCAR-3 3.93 µM | OVCAR-5 29.3 µM | RXF 393 2.53 µM | SF-539 > 10 µM | SK-MEL-5 5.45 µM | SK-OV-3 24.1 µM | SR 2.12 µM | SW-620 13.1 µM

Cn1c2c(c3ccccc31)C1CCCCCCC1C1C(=O)OC(=O)C21 (stereo not drawn)
inactive: A498 72.1 µM | A549 36.9 µM | ACHN 56 µM | CCRF-CEM 24.3 µM | HCC 2998 22.4 µM | OVCAR-3 19.5 µM | OVCAR-5 > 100 µM | RXF 393 21.2 µM | SF-539 39.8 µM | SK-MEL-5 35.2 µM | SK-OV-3 32.7 µM | SR 29 µM | SW-620 32.4 µM

CN(C)c1ccc(/C=C/c2ccc(/C=C/c3ccc(N(C)C)cc3)cc2)cc1
inactive: A498 > 100 µM | A549 95.9 µM | ACHN 57.8 µM | CAKI-1 > 100 µM | CCRF-CEM > 100 µM | HCC 2998 > 100 µM | HCT-116 83.9 µM | OVCAR-3 > 100 µM | OVCAR-5 > 100 µM | RXF 393 > 100 µM | SF-539 > 100 µM | SK-MEL-5 35.1 µM | SK-OV-3 > 100 µM | SW-620 > 100 µM

CC1C(=O)O[C@H]2C1CC[C@@]1(C)[C@H](O)CC[C@@]13C[C@]2(O)OO3 (stereo partly drawn)
inactive: A498 > 100 µM | A549 > 100 µM | ACHN > 100 µM | CAKI-1 > 100 µM | CCRF-CEM > 100 µM | HCC 2998 > 100 µM | HCT-116 > 100 µM | OVCAR-3 > 100 µM | OVCAR-5 > 100 µM | SK-MEL-5 > 100 µM | SK-OV-3 > 100 µM | SR > 100 µM | SW-620 > 100 µM

CC1C[C@@]2(c3ccccc3)C(=O)CCC[C@H]2N1 (stereo partly drawn)
inactive: A498 > 100 µM | A549 > 100 µM | ACHN > 100 µM | CAKI-1 > 100 µM | CCRF-CEM > 100 µM | HCT-116 > 100 µM | OVCAR-3 > 100 µM | OVCAR-5 > 100 µM | RXF 393 > 100 µM | SF-539 > 100 µM | SK-MEL-5 > 100 µM | SK-OV-3 > 100 µM | SR > 100 µM | SW-620 > 100 µM
